# Experimental data from patent publication US6509379B1, “Phenylacetic acid derivatives, process and intermediate products for their preparation, and their use as fungicides and pesticides” (BASF Aktiengesellschaft, priority 1995, dated 2003).
# Tests used:
# [1] = tested on: powdery mildew of wheat (Erysiphe graminis var. tritici); experiment: Efficacy against powdery mildew of wheat (protective spray on potted wheat seedlings); type: in vivo; details: wheat seedlings cv. Frühgold, sprayed 24 hours before dusting with oidia, evaluated after 7 days, untreated 70
# Description: (§1) The active ingredients are formulated as a 20% strength emulsion in a mixture of 70% by weight of cyclohexanone, 20% by weight of Nekanil® LN (Lutensol® AP6, wetting agent having emulsifier and dispersing action based on ethoxylated alkylphenols) and 10% by weight of Emulphor® EL (Emulan® EL, emulsifier based on ethoxylated fatty alcohols) and diluted with water to give the desired concentration. The experiments were evaluated visually.
# Leaves of wheat seedlings cv. “Frühgold” in pots were sprayed with aqueous spray mixture comprising 80% of active ingredient of Table 1 and 20% of emulsifier in the dry matter and, 24 hours after the spray coating had dried on, dusted with oidia (spores) of powdery mildew of wheat (Erysiphe graminis var. tritici). The test plants were subsequently placed in a greenhouse at from 20 to 22° C. and a relative atmospheric humidity of 75 to 80%. After 7 days, the extent of mildew development was determined.
# [2] = tested on: leaf rust of wheat (Puccinia recondite); experiment: Efficacy against leaf rust of wheat (spray after infection of potted wheat seedlings); type: in vivo; details: wheat seedlings cv. Kanzler, sprayed 24 hours after dusting with spores, evaluated after 8 days, untreated 70
# Description: as §1
# Leaves of wheat seedlings cv. “Kanzler” in pots were dusted with leaf rust spores (Puccinia recondite). The pots were then placed for 24 hours in a chamber with high atmospheric humidity (90 to 95%) at from 20 to 22° C. During this time, the spores germinated, and the germ tubes penetrated the leaf tissue. The infected plants were subsequently sprayed to runoff point with aqueous spray mixtures comprising 80% of active ingredient of Table 1 and 20% of emulsifier in the dry matter. After the spray coating had dried on, the test plants were placed in a greenhouse at from 20 to 22° C. and a relative atmospheric humidity of 65 to 70%. After 8 days, the extent of rust development on the leaves was determined.
melting point,SMILES,% infection of the leaves after application of an aqueous preparation comprising 250 ppm of active ingredient [1],% infection of the leaves after application of an aqueous preparation comprising . . . ppm of active ingredient ([2]; 16 ppm),% infection of the leaves after application of an aqueous preparation comprising . . . ppm of active ingredient ([2]; 63 ppm)
,CCON=C(C)c1ccc(C(=NOC)C(C)=NOCc2ccccc2C(=NOC)C(=O)NC)cc1 [I.55],15%,0%,
,CC=C(C(=O)OC)c1ccccc1CON=C(C)C(=NOC)c1ccc(N(C)C(=O)C(C)(C)C)cc1 [I.44],,,5%
,CNC(=O)/C(=N/OC)c1ccccc1CO/N=C(C)/C(=N/OC)c1ccc(/C(C)=N/OC)cc1 [I.52],15%,0%,
,COC=C(C(=O)OC)c1ccccc1CON=C(C)C(=NOC)c1ccc(C=NOC)cc1 [I.59],0%,,10%
,CC=C(C(=O)OC)c1ccccc1CON=C(C)C(=NOC)c1ccc(N(CCC)C(=O)CC)cc1 [I.23],15%,,
,CCN(C(=O)C(C)(C)C)c1ccc(C(=NOC)C(C)=NOCc2ccccc2C(=NOC)C(=O)NC)cc1 [I.26],15%,,
,CON=Cc1ccc(C(=NOC)C(C)=NOCc2ccccc2C(=NOC)C(=O)OC)cc1 [I.53],15%,,
,CCCN(C(=O)CC)c1ccc(C(=NOC)C(C)=NOCc2ccccc2C(=COC)C(=O)OC)cc1 [I.19],5%,,
,CCCN(C(C)=O)c1ccc(C(=NOC)C(C)=NOCc2ccccc2C(=NOC)C(=O)NC)cc1 [I.31],15%,0%,
168 to 170 °C,CNC(=O)/C(=N/OC)c1ccccc1CO/N=C(C)/C(=N/OC)c1ccc(N(C)C(=O)C(C)(C)C)cc1 [I.10],,,
,CC=C(C(=O)OC)c1ccccc1CON=C(C)C(=NOC)c1ccc(N(C)C(C)=O)cc1 [I.40],15%,,0%
,CC=C(C(=O)OC)c1ccccc1CON=C(C)C(=NOC)c1ccc(NC(=O)C(C)(C)C)cc1 [I.43],15%,,5%
,CNC(=O)C(=NOC)c1ccccc1CON=C(C)C(=NOC)c1ccc(N(C)C(C)=O)cc1 [I.29],,5%,
,COC=C(C(=O)OC)c1ccccc1CON=C(C)C(=NOC)c1ccc(NC(=O)C(C)(C)C)cc1 [I.13],0%,5%,15%
111 to 113 °C,CO/N=C(/C(C)=N/OCc1ccccc1/C(=N\OC)C(=O)OC)c1ccc(N(C)C(=O)C(C)(C)C)cc1 [I.12],5%,,15%
,CC=C(C(=O)OC)c1ccccc1CON=C(C)C(=NOC)c1ccc(N(CC)C(=O)C(C)(C)C)cc1 [I.45],15%,,15%
,CCCN(C(=O)CC)c1ccc(C(=NOC)C(C)=NOCc2ccccc2C(=NOC)C(=O)NC)cc1 [I.15],5%,,
,CNC(=O)C(=NOC)c1ccccc1CON=C(C)C(=NOC)c1ccc(C=NOC)cc1 [I.54],5%,0%,

melting point,SMILES,% infection of the leaves after application of an aqueous preparation comprising 250 ppm of active ingredient [1],% infection of the leaves after application of an aqueous preparation comprising . . . ppm of active ingredient ([2]; 16 ppm),% infection of the leaves after application of an aqueous preparation comprising . . . ppm of active ingredient ([2]; 63 ppm)
,CCC(=O)N(C)c1ccc(C(=NOC)C(C)=NOCc2ccccc2C(=COC)C(=O)OC)cc1 [I.17],15%,,
,CNC(=O)C(=NOC)c1ccccc1CON=C(C)C(=NOC)c1ccc(N(OC)C(=O)OC)cc1 [I.25],5%,,
,CC=C(C(=O)OC)c1ccccc1CON=C(C)C(=NOC)c1ccc(N(CC)C(=O)CC)cc1 [I.22],15%,,
112 to 114 °C,CO/N=C(\C)c1ccc(C(=N\OC)/C(C)=N/OCc2ccccc2/C(=N\OC)C(=O)OC)cc1 [I.51],,,
,C#CCON=C(C(C)=NOCc1ccccc1C(=COC)C(=O)OC)c1ccc(C(C)=NOCC)cc1 [I.56],,,15%
,CC=C(C(=O)OC)c1ccccc1CON=C(C)C(=NOC)c1ccc(NC(=O)CC)cc1 [I.20],15%,,
,CCC(=O)N(C)c1ccc(C(=NOC)C(C)=NOCc2ccccc2C(=NOC)C(=O)NC)cc1 [I.5],5%,,0%
,CC=C(C(=O)OC)c1ccccc1CON=C(C)C(=NOC)c1ccc(C=NOC)cc1 [I.58],0%,,0%
,CCC(=O)N(CC)c1ccc(C(=NOC)C(C)=NOCc2ccccc2C(=NOC)C(=O)NC)cc1 [I.8],0%,,0%
,CCCN(C(=O)C(C)(C)C)c1ccc(C(=NOC)C(C)=NOCc2ccccc2C(=NOC)C(=O)NC)cc1 [I.32],15%,0%,
,CC=C(C(=O)OC)c1ccccc1CON=C(C)C(=NOC)c1ccc(N(CC)C(C)=O)cc1 [I.41],15%,,15%
,CCC(=O)N(CC)c1ccc(C(=NOC)C(C)=NOCc2ccccc2C(=COC)C(=O)OC)cc1 [I.18],5%,,
,CC=C(C(=O)OC)c1ccccc1CON=C(C)C(=NOC)c1ccc(N(C)C(=O)CC)cc1 [I.21],5%,,
,CCN(C(C)=O)c1ccc(C(=NOC)C(C)=NOCc2ccccc2C(=NOC)C(=O)NC)cc1 [I.30],,15%,
,CCCCN(C(=O)C(C)(C)C)c1ccc(C(=NOC)C(C)=NOCc2ccccc2C(=NOC)C(=O)NC)cc1 [I.27],5%,3%,
114 to 116 °C,CO/N=C(/C(C)=N/OCc1ccccc1/C(=N\OC)C(=O)OC)c1ccc(NC(=O)C(C)(C)C)cc1 [I.11],,,
,CCC(=O)Nc1ccc(C(=NOC)C(C)=NOCc2ccccc2C(=COC)C(=O)OC)cc1 [I.16],5%,,
,C#CCON=C(C(C)=NOCc1ccccc1C(=COC)C(=O)OC)c1ccc(C(C)=NOC)cc1 [I.57],0%,,15%
